We go through six compounds from ChEMBL document CHEMBL5331062, “2,6-Difluorobenzamide derivatives as store-operated calcium channel (SOC) inhibitors” (Eur J Med Chem, 2022).

Series [1] can be described thus: Oral bioavailability in Sprague-Dawley rat at 20 mg/kg measured upto 24 hrs by LC-MS/MS analysis. The format is ADME, organism-based. The settings on record: in vivo.
A short description of series [2]: Cmax in Sprague-Dawley rat at 20 mg/kg, po measured upto 24 hrs by LC-MS/MS analysis. It counts as ADME, organism-based. Details: dose 20 mg/kg, time < 24 hrs, route po. The settings on record: in vivo.
Series [3] in a line: Tmax in Sprague-Dawley rat at 20 mg/kg, po measured upto 24 hrs by LC-MS/MS analysis. The settings on record: in vivo. The format is ADME, organism-based.
Series [4] can be described thus: AUC (0 to infinity) in Sprague-Dawley rat at 2 mg/kg, iv measured upto 24 hrs by LC-MS/MS analysis. The format is ADME, organism-based. Details: dose 2 mg/kg, time < 24 hrs, route iv. The settings on record: in vivo.
The nature of series [5]: Half life in Sprague-Dawley rat at 2 mg/kg, iv measured upto 24 hrs by LC-MS/MS analysis. It counts as ADME, organism-based. The settings on record: in vivo.
A short description of series [6]: Clearance in Sprague-Dawley rat at 2 mg/kg, iv measured upto 24 hrs by LC-MS/MS analysis. The format is ADME, organism-based. The settings on record: in vivo.
A short description of series [7]: AUC (0 to infinity) in Sprague-Dawley rat at 20 mg/kg, po measured upto 24 hrs by LC-MS/MS analysis. It counts as ADME, organism-based. Also noted: dose 20 mg/kg, time < 24 hrs, route po. The settings on record: in vivo.
The subject of series [8] is Caco-2. Put plainly: Inhibition of SOC activity in human Caco-2 cells co-transfected with STIM1-YFP/Orai1-mCherry assessed as reduction in thapsigargin induced STIM1-Orai1 interaction at 1 uM preincubated with thapsigargin for 2 mins followed by compound treatment by calcium influx assay. It counts as cell-based.
Series [9] can be described thus: Half life in Sprague-Dawley rat at 20 mg/kg, po measured upto 24 hrs by LC-MS/MS analysis. The format is ADME, organism-based. The settings on record: in vivo.
Series [10] concerns Caco-2. Nature of the series: Antiproliferative activity against human Caco-2 cells assessed as reduction in cell growth incubated for 24 hrs by WST-8 cell proliferation assay. The format is functional, cell-based.
Series [11] can be described thus: Volume of distribution at steady state in Sprague-Dawley rat at 2 mg/kg, iv measured upto 24 hrs by LC-MS/MS analysis. It counts as ADME, organism-based. The settings on record: in vivo, read-out: Vdss.
For series [12], the system named is Caco-2. Nature of the series: Inhibition of SOC activity in human Caco-2 cells co-transfected with STIM1-YFP/Orai1-mCherry assessed as reduction in thapsigargin induced STIM1-Orai1 interaction at 1 uM preincubated with compound for 30 mins followed by thapsigargin induction by time-lapse TIRF-FRET assay. The format is cell-based.
In series [13] the test system is Caco-2. Put plainly: Inhibition of SOC activity in human Caco-2 cells at 1 uM induced by thapsigargin for 5 mins followed by Ca2+ […] addition and measured after 5 mins after compound addition by Ca2+ imaging method. The format is cell-based.
In series [14] the test system is Caco-2. Put plainly: Inhibition of cell migration in human Caco-2 cells assessed as reduction in cell motility at 1 uM measured after 24 hrs by wound healing assay. It counts as functional, cell-based.
For series [15], the system named is Caco-2. Put plainly: Inhibition of SOC activity in human Caco-2 cells assessed as stabilization of STIM1-EB1 complex by immunoprecipitation-Western blot analysis. It counts as cell-based.
Series [16] deals with Caco-2. Nature of the series: Inhibition of cell invasion in human Caco-2 cells assessed as suppression of cell growth at 1 uM measured after 48 hrs by crystal violet staining based analysis. It counts as functional.
The subject of series [17] is Caco-2. Nature of the series: Inhibition of cell migration in human Caco-2 cells assessed as suppression of cell growth at 1 uM measured after 48 hrs by transwell migration assay. The format is functional, cell-based.
Series [18] relates to Caco-2. Nature of the series: Inhibition of SOC activity in human Caco-2 cells co-transfected with STIM1-YFP/Orai1-mCherry assessed as reduction in thapsigargin induced STIM1-Orai1 interaction at 1 uM preincubated with thapsigargin for 2 mins followed by compound treatment by time-lapse TIRF-FRET assay. The format is cell-based.

The source made the active and inactive calls. The rule behind the calls is not given here.

`COc1ccc(OC)c(-c2ccc(NC(=O)c3ccncc3F)cc2)c1` came in with a bioavailability in series [1] of 20.6%. This compound came in with a Cmax in series [2] of 257 ng/mL. Moreover, in series [3], the time of peak concentration (Tmax) is 3.3 h. In addition, the AUC(0-inf) was determined as 969 ng·h/mL in series [4] and 2000 ng·h/mL in [7]. Besides, the figures for the half-life in series [5] and in [9] were 312 min and 150 min, respectively. Moreover, the clearance in series [6] is 34.4 mL/min/kg. Also, the inhibition entry in the series on Caco-2 [8] and in the series on Caco-2 [12] was “Active” throughout. Further, the result with Caco-2 [10] was inactive. Also, the Vd in series [11] amounted to 2.4 L/kg.
On to `O=C(Nc1ccc(NC(=O)c2c(F)cccc2F)cc1)c1cncc(F)c1`, for which, in the series on Caco-2 [13], the inhibition entry was “Active”.
As for `O=C(Nc1ccc(-c2cccc(Cl)c2)cn1)c1c(F)cccc1F`, the inhibition result in the series on Caco-2 [14] is “Active”.
For the compound `O=C(Nc1ccc(-c2ccco2)cn1)c1c(F)cccc1F`, the inhibition result in the series with Caco-2 [14] and in the series on Caco-2 [13] was “Active” in each case.
Consider `COc1ccc(-c2ccc(NC(=O)c3c(F)cccc3F)nc2)cc1OC`, for which the inhibition result with Caco-2 [13] is “Active”.
As to `O=C(Nc1ccc(-c2ccc(F)cc2)cn1)c1c(F)cccc1F`, the inhibition result in the series with Caco-2 [15], in the series with Caco-2 [8], in the series on Caco-2 [16], with Caco-2 [17], in the series on Caco-2 [18] and in the series with Caco-2 [14] was “Active” in each case. Moreover, the inhibition entry in the series with Caco-2 [13] and in the series with Caco-2 [12] was “Active” each time. The compound also yielded a bioavailability in series [1] of 34%. Further, the Cmax in [2] came to 2160 ng/mL. The time to peak (Tmax) in [3] was found to be 6 h. In addition, the area under the curve AUC(0-inf) is 15900 ng·h/mL in series [4] and 54000 ng·h/mL in series [7]. Moreover, the half-life is 1440 min in series [5] and 960 min in [9]. The compound further returned a clearance in series [6] of 2.4 mL/min/kg. Besides, the result in the series on Caco-2 [10] was inactive. In addition, the Vd in [11] is 3.9 L/kg.
